Results published in patent US20250069697A1, “AN IMPROVED METHOD TO IDENTIFY NUCLEIC ACID SEQUENCES WITHIN A SET OF SEQUENCES OBTAINED BY A SEQUENCER AND A SYSTEM” (priority 2022, published 2025).

Key:
Format in all cases: cell-based
[1] = system: Escherichia coli; experiment: Growth of the isolate in antibiotic mediums, sample 5; settings: microorganism isolated in sample 5 (Escherichia coli); grown in antibiotic medium
Description: (§1) Each microorganism was growth in at least two antibiotic mediums, in which the improved method predicted resistance, and at least two antibiotic mediums in which the improved method predicted susceptibility, in order to corroborate the obtained results.

[2] = system: Staphylococcus epidermidis; experiment: Growth of the isolate in antibiotic mediums, sample 4; settings: microorganism isolated in sample 4 (Staphylococcus epidermidis); grown in antibiotic medium
Description: as §1

[3] = system: Klebsiella pneumoniae; experiment: Growth of the isolate in antibiotic mediums, sample 1; settings: microorganism isolated in sample 1 (Klebsiella pneumoniae); grown in antibiotic medium
Description: as §1

[4] = system: Staphylococcus aureus; experiment: Growth of the isolate in antibiotic mediums, sample 2; settings: microorganism isolated in sample 2 (Staphylococcus aureus); grown in antibiotic medium
Description: as §1

[5] = system: Enterococcus faecalis; experiment: Growth of the isolate in antibiotic mediums, sample 3; settings: microorganism isolated in sample 3 (Enterococcus faecalis); grown in antibiotic medium
Description: as §1

SMILES | Result [1] | Result [2] | Result [3] | Result [4] | Result [5]
COc1cccc(OC)c1C(=O)N[C@@H]1C(=O)N2[C@@H]1SC(C)(C)[C@@H]2C(=O)O [Methicillin] | Not resistant | Not resistant | Not resistant | Not resistant | –
CC[C@H]1OC(=O)[C@H](C)[C@@H](O[C@H]2C[C@@](C)(OC)[C@@H](O)[C@H](C)O2)[C@H](C)[C@@H](O[C@@H]2O[C@H](C)C[C@H](N(C)C)[C@H]2O)[C@](C)(O)C[C@@H](C)CN(C)[C@H](C)[C@@H](O)[C@]1(C)O [azithromycin] | – | – | – | Resistant | –
NCC[C@H](O)C(=O)N[C@@H]1C[C@H](N)[C@@H](O[C@H]2O[C@H](CN)[C@@H](O)[C@H](O)[C@H]2O)[C@H](O)[C@H]1O[C@H]1O[C@H](CO)[C@@H](O)[C@H](N)[C@H]1O [Amikacin] | Not resistant | Not resistant | Not resistant | Not resistant | Not resistant
CO/N=C(\C(=O)N[C@@H]1C(=O)N2C(C(=O)O)=C(CSc3nc(=O)c(=O)[nH]n3C)CS[C@H]12)c1csc(N)n1 [Ceftriaxone] | Resistant | Resistant | Resistant | – | –
O=C(O)c1cn(C2CC2)c2cc(N3CCNCC3)c(F)cc2c1=O [Ciprofloxacin] | Resistant | Resistant | Resistant | Resistant | Not resistant
